Test results published in patent EP4700027A1, “CRYSTALLINE FORM OF NITROGEN-CONTAINING TETRACYCLIC COMPOUND AND PREPARATION METHOD THEREFOR” (Jiangsu Hengrui Pharmaceuticals Co., Ltd., priority 2023, dated 2024).

Legend:
[1] = Dynamic vapor sorption (DVS) hygroscopicity testing; assay type: physicochemical
Text: According to the description of hygroscopicity characteristics and the definitions of hygroscopic weight gains in "General Rule 9103, Guidelines for Hygroscopicity Trials for Pharmaceuticals" in the Chinese Pharmacopoeia, Volume IV, 2015 Edition, • deliquescent: sufficient water is absorbed to form a liquid; • extremely hygroscopic: the hygroscopic weight gain is not less than 15%; • hygroscopic: the hygroscopic weight gain is less than 15% but not less than 2%; • slightly hygroscopic: the hygroscopic weight gain is less than 2% but not less than 0.2%; nonhygroscopic or practically nonhygroscopic: the hygroscopic weight gain is less than 0.2%.
DVS refers to dynamic vapor sorption: The analysis was performed using SMS DVS Advantage; at 25 °C, the humidity was changed as follows: 50%-95%-0%-95%-50%, in steps of 10% (5% for the last step) (specific humidity ranges are shown in corresponding patterns, and those listed here were used in most cases); the criterion was dm/dt being not greater than 0.002%.

[2] = Influencing factor stability study on crystal forms (light, high temperature, high humidity, 30 days); assay type: physicochemical
[3] = Light exposure (4500 Lux), 7 days
[4] = Light exposure (4500 Lux), 14 days
[5] = Light exposure (4500 Lux), 30 days

In the case of `C=CC(=O)N1CCN2C(=O)c3cc(F)c(-c4ccc(F)c5sc(N)c(C#N)c45)c4c(Cl)nn(c34)CC[C@H]2C1` [crystal form M], the hygroscopic weight gain ([1]; accelerated experimental conditions (70% RH)) was “about 0.55%”, the “crystal form re-identified after DVS testing” value ([1]; after DVS testing) was “did not change” and the hygroscopic weight gain ([1]; extreme conditions (90% RH)) was “about 0.73%”. For the same compound, the “desorption process of the sample versus its adsorption process” value ([1]; humidity changing from 0% to 95% RH) was “substantially overlapped”, the hygroscopic weight gain ([1]; normal storage conditions (25 °C and 60% RH)) was “about 0.48%” and the Color and state ([2]; 40 °C, 7 days) was “Off-white solid”. For the same compound, the Crystal form ([2]; 40 °C, 7 days) was “Did not change”, the “Purity (%)” value ([2]; 40 °C, 7 days) was 99.1% and the Color and state ([2]; 40 °C, 14 days) was “Off-white solid”. For the same compound, the Crystal form ([2]; 40 °C, 14 days) was “Did not change”, the “Purity (%)” value ([2]; 40 °C, 14 days) was 99.1% and the Color and state ([2]; 40 °C, 30 days) was “Off-white solid”. For the same compound, the Crystal form ([2]; 40 °C, 30 days) was “Did not change”, the “Purity (%)” value ([2]; 40 °C, 30 days) was 98.9% and the Color and state ([2]; 60 °C, 7 days) was “Off-white solid”. The Crystal form ([2]; 60 °C, 7 days) was “Did not change”, the “Purity (%)” value ([2]; 60 °C, 7 days) was 99.1% and the Color and state ([2]; 60 °C, 14 days) was “Off-white solid”. For the same compound, the Crystal form ([2]; 60 °C, 14 days) was “Did not change”, the “Purity (%)” value ([2]; 60 °C, 14 days) was 99.1% and the Color and state ([2]; 60 °C, 30 days) was “Off-white solid”. The Crystal form ([2]; 60 °C, 30 days) was “Did not change”, the “Purity (%)” value ([2]; 60 °C, 30 days) was 99.0% and the Color and state ([2]; 75% RH, 7 days) was “Off-white solid”. The Crystal form ([2]; 75% RH, 7 days) was “Did not change”, the “Purity (%)” value ([2]; 75% RH, 7 days) was 99.2% and the Color and state ([2]; 75% RH, 14 days) was “Off-white solid”. For the same compound, the Crystal form ([2]; 75% RH, 14 days) was “Did not change”, the “Purity (%)” value ([2]; 75% RH, 14 days) was 99.2% and the Color and state ([2]; 75% RH, 30 days) was “Off-white solid”. The Crystal form ([2]; 75% RH, 30 days) was “Did not change”, the “Purity (%)” value ([2]; 75% RH, 30 days) was 99.2% and the Color and state ([2]; 92.5% RH, 7 days) was “Off-white solid”. For the same compound, the Crystal form ([2]; 92.5% RH, 7 days) was “Did not change”, the “Purity (%)” value ([2]; 92.5% RH, 7 days) was 99.2% and the Color and state ([2]; 92.5% RH, 14 days) was “Off-white solid”. The Crystal form ([2]; 92.5% RH, 14 days) was “Did not change”, the “Purity (%)” value ([2]; 92.5% RH, 14 days) was 99.2% and the Color and state ([2]; 92.5% RH, 30 days) was “Off-white solid”. The Crystal form ([2]; 92.5% RH, 30 days) was “Did not change”, the “Purity (%)” value ([2]; 92.5% RH, 30 days) was 99.2% and the Color and state ([2]; Initial, 0 days) was “Off-white solid”. For the same compound, the Crystal form ([2]; Initial, 0 days) was “Crystal form M”, the “Purity (%)” value ([2]; Initial, 0 days) was 99.2% and the Color and state [2, 3] was “Off-white solid”. For the same compound, the Crystal form [2, 3] was “Did not change”, the “Purity (%)” value [2, 3] was 99.2% and the Color and state [2, 4] was “Off-white solid”. The Crystal form [2, 4] was “Did not change”, the “Purity (%)” value [2, 4] was 99.2% and the Color and state [2, 5] was “Off-white solid”. For the same compound, the Crystal form [2, 5] was “Did not change” and the “Purity (%)” value [2, 5] was 99.0%.
